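Where inhibition never reached the appropriate level, the endpoint shown equals the highest concentration tested. Otherwise, values were interpolated linearly from a five-concentration, 48-hour dose response in 96-well plates. GI50 is the concentration that inhibits growth by half. TGI is the concentration that stops growth completely.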
Key:
Assay in all cases: NCI-60 cell line screen, 48 h
HOP-62 NSCLC = system: HOP-62 NSCLC
KM12 colon = system: KM12 colon
IGROV1 ovarian = system: IGROV1 ovarian
A549 NSCLC = system: A549 NSCLC
SR leukemia = system: SR leukemia
OVCAR-3 ovarian = system: OVCAR-3 ovarian
SK-MEL-28 melanoma = system: SK-MEL-28 melanoma
LOX IMVI melanoma = system: LOX IMVI melanoma
BT-549 breast = system: BT-549 breast
PC-3 prostate = system: PC-3 prostate

| SMILES | TGI (HOP-62 NSCLC) [µM] | TGI (KM12 colon) [µM] | TGI (IGROV1 ovarian) [µM] | TGI (A549 NSCLC) [µM] | TGI (SR leukemia) [µM] | TGI (OVCAR-3 ovarian) [µM] | TGI (SK-MEL-28 melanoma) [µM] | GI50 (KM12 colon) [µM] | GI50 (IGROV1 ovarian) [µM] | GI50 (A549 NSCLC) [µM] | GI50 (SR leukemia) [µM] | GI50 (OVCAR-3 ovarian) [µM] | GI50 (LOX IMVI melanoma) [µM] | TGI (LOX IMVI melanoma) [µM] | GI50 (SK-MEL-28 melanoma) [µM] | GI50 (HOP-62 NSCLC) [µM] | GI50 (BT-549 breast) [µM] | TGI (BT-549 breast) [µM] | TGI (PC-3 prostate) [µM] | GI50 (PC-3 prostate) [µM] |
| --- | --- | --- | --- | --- | --- | --- | --- | --- | --- | --- | --- | --- | --- | --- | --- | --- | --- | --- | --- | --- |
| COC(=O)CSc1n[nH]c(-c2ccccc2)n1 | > 100 | > 100 | > 100 | > 100 | 43.5 | > 100 | > 100 |  |  |  |  |  |  |  |  |  |  |  |  |  |
| CC(N)CN.CC(N)CN.[Cl-].[O]=[Os+2]=[O] (configuration not stated) |  | > 100 | > 100 | > 100 | > 100 | > 100 | > 100 | > 100 | > 100 | > 100 | 28.6 | 81.4 | 27 | > 100 | > 100 |  |  |  |  |  |
| CCN1CCN(CC(=O)Nc2nc3ccc(NCc4ccc(C)cc4)cc3s2)CC1 | 8.03 | 13.8 | 14.1 | 8.61 | 8.37 | 13.7 | 1.92 | 5.67 | 6.14 | 2.29 | 1.8 | 4.93 | 0.94 | 1.86 | 0.929 | 2.02 | 6.45 | 19.3 |  |  |
| CN(C)CCCNC(=O)c1cccc2nc3ccccc3nc12 | 45.5 | 49.9 | > 82.2 | > 78.7 | > 100 | > 59.5 | 38.5 |  |  |  |  |  |  | 39.8 |  |  |  |  |  |  |
| CC1(C)CC(=O)C(CC2C(=O)c3ccccc3C2=O)C(=O)C1C(=O)C(=O)Nc1cccc2ccc(O)cc12 (configuration not stated) |  | > 100 | > 100 | > 100 |  | > 100 | > 100 |  |  |  |  |  |  | > 100 |  |  |  | > 100 | > 100 |  |
| COc1cc(-c2nccc3[nH]c(-c4cccc5[nH]ccc45)nc23)cc(OC)c1OC |  | 13.4 | 23.2 | 1.78 | 10.4 | 11 | 15.3 | < 0.01 | < 0.01 | < 0.01 | < 0.01 | < 0.01 | < 0.01 | 5.98 | 0.0347 |  |  |  | 15.7 | < 0.01 |
| COc1ccc(/C=c2\sc3nnc(CCC(=O)Nc4cccc(C(F)(F)F)c4)n3c2=O)cc1 | > 100 | > 100 | > 100 | > 100 | 75.8 | > 100 | > 100 |  |  |  |  |  |  | > 100 |  |  |  |  |  |  |
| C=C(CS(=O)(=O)c1ccccc1)C(=O)OCC |  | 32.6 | 38.8 | 37.1 |  | 26.5 | 28.9 |  |  |  |  |  |  | 24.2 |  |  |  |  |  |  |
| O=c1c2cc(Br)ccc2[nH]c(=S)n1-c1ccccc1 | > 100 | > 100 | > 100 | > 100 |  | > 100 | > 100 |  |  |  |  |  |  | > 100 |  |  |  |  |  |  |
| CC(C)(C)c1cc(Oc2ccc(C#N)c(C#N)c2)cc(C(C)(C)C)c1 | > 100 | > 100 | > 100 | > 100 | 42.3 | > 100 | > 100 |  |  |  |  |  |  | 94.6 |  |  |  |  |  |  |
| C[N+](C)(C)CC(=O)N/N=C/c1oc(-c2cccc([N+](=O)[O-])c2)c(-c2cccc([N+](=O)[O-])c2)c1[N+](=O)[O-] | > 100 |  | > 100 | > 100 | > 100 |  | > 100 |  |  |  |  |  |  |  |  |  |  |  |  |  |
| COc1ccc2oc(-c3cc4cc(OC)ccc4o3)cc2c1 | > 100 | > 100 | > 100 | > 100 |  | > 100 | > 100 |  |  |  |  |  |  | > 100 |  |  |  |  |  |  |
| O=C(N/N=C/c1ccncc1)c1ccc(C(F)(F)F)nc1Nc1cccc(C(F)(F)F)c1 | 7.29 | 12.4 | 4.26 | 10.9 | 1.74 | 7.74 | 14.2 | 3.23 | 1.41 | 3.12 | 0.271 | 2.65 | 0.913 | 12.3 | 3.48 | 2 | 0.613 | 3.59 |  |  |
| CCOc1ccc(/C=N\N2C(=O)c3ccccc3C2=O)cc1 | > 100 | > 100 | > 100 | > 100 | > 100 | > 100 | > 100 |  |  |  |  |  |  | > 100 |  |  |  |  |  |  |
| CN=c1ss/c(=N\C(=S)N(C)C)n1C1CCCCC1 | > 100 | > 31.6 | > 31.6 | > 31.6 |  | > 31.6 | > 31.6 |  |  |  |  |  |  | > 31.6 |  |  |  |  |  |  |
| CC1=C(C(=O)Nc2cccc(C(F)(F)F)c2)C(c2ccccc2F)C(C(=O)Nc2cccc(C(F)(F)F)c2)=C(C)N1 | 26.2 | 14.8 | 43.7 | 19.7 |  | 17.8 | 23.7 |  |  |  |  |  |  | 18.3 |  |  |  |  |  |  |

From PubChem BioAssay (NCI)
